Source: the supplement of paper PMC4862054

Experiments:
CAL-148 = details: 72 h
Method in brief: (§1)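 Rows with a drug sensitivity score of zero were dropped, and EC50 was taken from the fitted percent-inhibition dose-response curve, censored at the highest concentration. Data were normalised on each plate to vehicle and a positive kill control and checked by Z'-factor. The assay seeded breast cancer cell lines in 20 µl onto 384-well plates pre-loaded with compound in 5 µl medium for 72 h, then added 2.5 µl CellTiter-Blue for 2 h at 37 °C and read fluorescence at 560/590 nm.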

CAL-51 = details: 72 h
Method in brief: as §1

CAL-85-1 = details: 72 h
Method in brief: as §1

DU-4475 = details: 72 h
Method in brief: as §1

HDQ-P1 = details: 72 h
Method in brief: as §1

MDA-MB-453 = details: 72 h
Method in brief: as §1

HCC1937 = experiment: normalised viability (% of control), CellTiter-Blue; higher = more viable cells (about 100 = DMSO control); details: incubation time: 72 h
Method in brief: (§2)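 After 72 h on compound-loaded 384-well plates, breast cancer cell lines received 2.5 µl CellTiter-Blue reagent for 2 h at 37 °C. Fluorescence at 560/590 nm was scaled per plate so that vehicle was 100 and a positive kill control was 0. The value stands for normalised viability at a single listed concentration of the series.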

MDA-MB-436 = experiment: as above; details: incubation time: 72 h
Method in brief: as §2

| EC50, CellTiter-Blue viability (MDA-MB-453) | SMILES | EC50, CellTiter-Blue viability (CAL-148) | EC50, CellTiter-Blue viability (CAL-51) | EC50, CellTiter-Blue viability (CAL-85-1) | EC50, CellTiter-Blue viability (DU-4475) | EC50, CellTiter-Blue viability (HDQ-P1) | normalised viability (HCC1937; 10 nM) | normalised viability (HCC1937; 1000 nM) | normalised viability (HCC1937; 10000 nM) | normalised viability (MDA-MB-436; 10 nM) | normalised viability (MDA-MB-436; 1000 nM) | normalised viability (MDA-MB-436; 10000 nM) | normalised viability (HCC1937; 1 nM) | normalised viability (HCC1937; 100 nM) | normalised viability (MDA-MB-436; 1 nM) | normalised viability (MDA-MB-436; 100 nM) | normalised viability (HCC1937; 50 nM) | normalised viability (HCC1937; 5000 nM) | normalised viability (HCC1937; 50000 nM) | normalised viability (MDA-MB-436; 50 nM) | normalised viability (MDA-MB-436; 5000 nM) | normalised viability (MDA-MB-436; 50000 nM) |
| --- | --- | --- | --- | --- | --- | --- | --- | --- | --- | --- | --- | --- | --- | --- | --- | --- | --- | --- | --- | --- | --- | --- |
| 96.5 nM | COC1=C2C[C@@H](C)C[C@H](OC)[C@H](O)[C@@H](C)/C=C(\C)[C@H](OC(N)=O)[C@@H](OC)/C=C\C=C(/C)C(=O)NC(=CC1=O)C2=O [Geldanamycin] | 223 nM | 535 nM | 270 nM | 137 nM | 81.4 nM | 115% | 30.1% | 21.3% | 107% | 15.7% | 16.9% | – | – | – | – | – | – | – | – | – | – |
| 4.03 nM | CC(=O)O[C@H]1C(=O)[C@@]2(C)[C@H]([C@H](OC(=O)c3ccccc3)[C@]3(O)C[C@H](OC(=O)[C@H](O)[C@@H](NC(=O)c4ccccc4)c4ccccc4)C(C)=C1C3(C)C)[C@]1(OC(C)=O)CO[C@@H]1C[C@@H]2O [Paclitaxel] | 6.75 nM | 12.2 nM | 7.28 nM | 18.6 nM | 1.26 nM | – | 19.7% | – | – | 42.2% | – | 91.1% | 15.3% | 100% | 50.5% | – | – | – | – | – | – |
| 24.7 nM | COC(=O)C[C@](O)(CCCC(C)(C)O)C(=O)O[C@@H]1C(OC)=C[C@]23CCCN2CCc2cc4c(cc2[C@H]13)OCO4 [Omacetaxine] | 13.7 nM | 21.5 nM | 17.4 nM | 5.48 nM | 13.8 nM | – | – | – | – | – | – | – | – | – | – | – | – | – | – | – | – |
| – | COc1ccc(C2=N[C@@H](c3ccc(Cl)cc3)[C@@H](c3ccc(Cl)cc3)N2C(=O)N2CCNC(=O)C2)c(OC(C)C)c1 [Nutlin-3] | – | 2750 nM | – | 6310 nM | – | 81.3% | 98.7% | 113% | 108% | 82.3% | 110% | – | – | – | – | – | – | – | – | – | – |
| 7210 nM | C[C@@H]1C=C2C(=O)O[C@@H]3CC[C@H](C1)[C@]23O [Galiellalactone] | 16100 nM | 48900 nM | 6900 nM | – | 39400 nM | – | – | – | – | – | – | – | – | – | – | 132% | 79.4% | 22.8% | 98.2% | 76.6% | 21.9% |
| 314 nM | C[C@@]1(C(=O)Nc2ccc(F)nc2)CCCN1c1nc(Nc2cc(C3CC3)n[nH]2)c2cccn2n1 | 1170 nM | 1500 nM | 858 nM | 1510 nM | 293 nM | 127% | 73.2% | 29.4% | 122% | 94.3% | 33.9% | – | – | – | – | – | – | – | – | – | – |
| 168 nM | C#Cc1cccc(Nc2ncnc3cc(OC)c(OCCCCCCC(=O)NO)cc23)c1 [CUDC-101] | 817 nM | 3790 nM | 426 nM | 1130 nM | 213 nM | 71.7% | 45.4% | 14.6% | 94.7% | 53.9% | 12% | – | – | – | – | – | – | – | – | – | – |
| 5.38 nM | COc1ncc(-c2ccc3nccc(-c4ccnnc4)c3c2)cc1NS(=O)(=O)c1ccc(F)cc1F | 27.6 nM | 12.6 nM | 27.2 nM | 113 nM | 6.71 nM | – | 32.5% | – | – | 22.8% | – | 94% | 47.2% | 105% | 34.2% | – | – | – | – | – | – |
| 249 nM | Cn1c(=O)c(F)c(Nc2ccc(I)cc2F)c2c(=O)n(C[C@@H](O)CO)cnc21 [TAK-733] | – | 102 nM | 68.5 nM | 3.59 nM | 161 nM | – | 74% | – | – | 88.9% | – | 121% | 104% | 112% | 84.1% | – | – | – | – | – | – |
| 12.8 nM | CCS(=O)(=O)c1cccc(-c2cc(C(=O)NC3CCN(C)CC3)c(C)c3[nH]c4ncc(C)cc4c23)c1 [TAK-901] | – | 179 nM | 344 nM | 806 nM | 260 nM | – | 35.2% | – | – | 70.6% | – | 116% | 80.7% | 116% | 96.1% | – | – | – | – | – | – |
| 632 nM | COC1=CC(c2cc3ccccc3[nH]2)=N/C1=C\c1[nH]c(C)cc1C [Obatoclax] | 3150 nM | 2060 nM | 982 nM | 6650 nM | 95.6 nM | 63% | 21.4% | 20% | 76.7% | 38.2% | 21.5% | – | – | – | – | – | – | – | – | – | – |
| 465 nM | COc1cccc2c1C(=O)c1c(O)c3c(c(O)c1C2=O)C[C@@](O)(C(C)=O)C[C@@H]3O[C@H]1C[C@H](N)[C@H](O)[C@H](C)O1 [Daunorubicin] | 66.1 nM | 59 nM | 290 nM | 56.4 nM | 338 nM | – | 20% | – | – | 17.3% | – | 105% | 34.2% | 100% | 50.4% | – | – | – | – | – | – |
| 3900 nM | O=c1[nH]cc(F)c(=O)[nH]1 [Fluorouracil] | 944 nM | 5390 nM | 680 nM | 2570 nM | – | 90.6% | 112% | 75.3% | 103% | 87.8% | 73.5% | – | – | – | – | – | – | – | – | – | – |
| 5880 nM | O=c1[nH]c(=O)n([C@H]2C[C@H](O)[C@@H](CO)O2)cc1F [Floxuridine] | 19.8 nM | 46.9 nM | 66.3 nM | – | – | 78.3% | 76% | 42.1% | 88.9% | 62.5% | 44.2% | – | – | – | – | – | – | – | – | – | – |
| 6.36 nM | CC(C)C[C@H](NC(=O)[C@H](Cc1ccccc1)NC(=O)c1cnccn1)B(O)O [Bortezomib] | 24.7 nM | 38.9 nM | 7.76 nM | 18.6 nM | 5.29 nM | – | 3.46% | – | – | 9.29% | – | 83.4% | 8.79% | 101% | 12.2% | – | – | – | – | – | – |
| – | Cn1cnc2c(F)c(Nc3ccc(Br)cc3F)c(C(=O)NOCCO)cc21 [MEK-162] | – | – | – | 38.9 nM | – | – | 88.5% | – | – | 99.6% | – | 72.6% | 94.8% | 114% | 76.4% | – | – | – | – | – | – |
| 64 nM | COc1c(C)cnc(Cn2cnc3c(Cl)nc(N)nc32)c1C [BIIB021] | 133 nM | 341 nM | 490 nM | 143 nM | 241 nM | 83.1% | 25.1% | 22.1% | 92.5% | 43.5% | 25.5% | – | – | – | – | – | – | – | – | – | – |
